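Compound exposure: 48 hours, 5 concentrations, 96-well plates. GI50: concentration for 50% inhibition of growth.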 Active and inactive are the calls of the source. Rule as the data show it: active = GI50 up to about 1.1 µM and inactive = higher. Where a SMILES comes first, the peptide text is derived from it. The star is where a group is joined. Boc = CC(C)(C)OC(=O)*; OBn = c1ccc(CO*)cc1
Experiments:
Assay in all cases: NCI-60 cell line screen, 48 h
SF-295 = system: SF-295
TK-10 = system: TK-10
K562 = system: K562
OVCAR-3 = system: OVCAR-3
MCF7 = system: MCF7
HCT-116 = system: HCT-116
NCI/ADR-RES = system: NCI/ADR-RES
SK-MEL-28 = system: SK-MEL-28
LOX IMVI = system: LOX IMVI
HCT-15 = system: HCT-15
RPMI-8226 = system: RPMI-8226
SR = system: SR
NCI-H23 = system: NCI-H23
MOLT-4 = system: MOLT-4
U-251 = system: U-251
SK-MEL-2 = system: SK-MEL-2
CAKI-1 = system: CAKI-1
A498 = system: A498
SNB-19 = system: SNB-19
SF-539 = system: SF-539
RXF 393 = system: RXF 393
MDA-MB-435 = system: MDA-MB-435
SN12C = system: SN12C
EKVX = system: EKVX
IGROV-1 = system: IGROV-1
PC-3 = system: PC-3
NCI-H522 = system: NCI-H522
A549 = system: A549
MDA-N = system: MDA-N
Hs-578T = system: Hs-578T
UACC-257 = system: UACC-257
SW-620 = system: SW-620
HL-60 = system: HL-60
HOP-62 = system: HOP-62
CCRF-CEM = system: CCRF-CEM
OVCAR-8 = system: OVCAR-8
ACHN = system: ACHN
OVCAR-5 = system: OVCAR-5
KM12 = system: KM12
786-0 = system: 786-0
T47D = system: T47D
COLO 205 = system: COLO 205
MDA-MB-231 = system: MDA-MB-231
DU-145 = system: DU-145
HCC 2998 = system: HCC 2998
HT-29 = system: HT-29
SF-268 = system: SF-268
NCI-H460 = system: NCI-H460
SK-MEL-5 = system: SK-MEL-5
Malme-3M = system: Malme-3M
SK-OV-3 = system: SK-OV-3
NCI-H226 = system: NCI-H226
UACC-62 = system: UACC-62
M14 = system: M14
SNB-75 = system: SNB-75
UO-31 = system: UO-31
HOP-92 = system: HOP-92
OVCAR-4 = system: OVCAR-4

Measured: GI50

O=C(NC(C(F)(F)F)(C(F)(F)F)P(=O)(Cc1ccccc1)Cc1ccccc1)C(C(F)(F)F)C(F)(F)F
29.4 µM: HCT-15
inactive: SF-295 20.7 µM | TK-10 21.8 µM | K562 23 µM | OVCAR-3 31.6 µM | MCF7 12.2 µM | HCT-116 17.3 µM | NCI/ADR-RES 17.9 µM | SK-MEL-28 25.6 µM | LOX IMVI 18.1 µM | RPMI-8226 25.2 µM | SR 18.7 µM | NCI-H23 19.7 µM | MOLT-4 16.9 µM | U-251 17.6 µM | SK-MEL-2 26.4 µM | CAKI-1 52.4 µM | A498 17.3 µM | SNB-19 27.7 µM | SF-539 20.7 µM | RXF 393 21 µM | MDA-MB-435 17.4 µM | SN12C 17.7 µM | EKVX 26.4 µM | IGROV-1 18.5 µM | PC-3 21.5 µM | NCI-H522 26.2 µM | A549 25.9 µM | MDA-N 19.5 µM | Hs-578T 55.7 µM | UACC-257 22.6 µM | SW-620 44.4 µM | HL-60 22.4 µM | HOP-62 20.6 µM | CCRF-CEM 29.6 µM | OVCAR-8 22.3 µM | ACHN 19.7 µM | OVCAR-5 22.3 µM | KM12 19.5 µM | 786-0 17.2 µM | T47D 34.9 µM | COLO 205 18.4 µM | MDA-MB-231 19.8 µM | DU-145 37.8 µM | HCC 2998 27.5 µM | HT-29 19.8 µM | SF-268 23.3 µM | NCI-H460 27.7 µM | SK-MEL-5 15.4 µM | Malme-3M 19.1 µM | SK-OV-3 31.8 µM | NCI-H226 13.4 µM | UACC-62 27.2 µM | M14 18.4 µM

CC(C)(C)OC(=O)NC(Cc1ccccc1)C(=O)NC(Cc1ccccc1)C(=O)NCC(=O)OCc1ccccc1 (stereo not drawn) (Boc-Phe-Phe-Gly-OBn; configuration not given here)
17.9 µM: HCT-15
inactive: SF-295 > 10 µM | TK-10 19.7 µM | K562 12.5 µM | OVCAR-3 20 µM | MCF7 51.5 µM | HCT-116 18.3 µM | NCI/ADR-RES > 100 µM | SNB-75 37.8 µM | UO-31 41 µM | SK-MEL-28 23.3 µM | LOX IMVI 7.93 µM | RPMI-8226 15.4 µM | SR 18.4 µM | NCI-H23 22.8 µM | MOLT-4 22.2 µM | U-251 18.7 µM | SK-MEL-2 33.6 µM | CAKI-1 57.4 µM | A498 > 100 µM | SNB-19 35 µM | SF-539 19 µM | MDA-MB-435 8.36 µM | SN12C 21.7 µM | EKVX 45 µM | IGROV-1 13.2 µM | PC-3 16.3 µM | NCI-H522 6 µM | MDA-N 19.9 µM | HOP-92 > 100 µM | UACC-257 > 100 µM | SW-620 12.8 µM | HL-60 19.7 µM | HOP-62 31.1 µM | CCRF-CEM 16.4 µM | OVCAR-8 30.1 µM | ACHN 47.3 µM | OVCAR-5 37.5 µM | OVCAR-4 24.7 µM | 786-0 17.1 µM | T47D 77.6 µM | COLO 205 29.8 µM | MDA-MB-231 > 10 µM | DU-145 17.9 µM | HCC 2998 16.3 µM | HT-29 16.7 µM | SF-268 15.3 µM | NCI-H460 23 µM | Malme-3M 44.5 µM | SK-OV-3 22.8 µM | UACC-62 16.3 µM | M14 20.8 µM
